# Reference: patent US8598344B2, “CDKI pathway inhibitors and uses thereof” (Senex Biotechnology, priority 2009, dated 2013)
# Read-outs that look alike come from different tables or passages of the source.
# Key:
# IRAK1 = target: T1, IRAK1 (Homo sapiens, UniProt P51617); test: KinomeScan competition binding assay; settings: 10 μM compound
# T1 construct: purchased KinomeScan, a division of Ambit Biosciences
# Text: (§1) This similarity led us to test SNX14 for the ability to inhibit 285 kinases, using the services of KinaseProfiler of Millipore Corporation (285 kinases). […] The KINOMEscan assay has been described in detail in Fabian et al., Nat. Biotechnol. 23: 329 (2005) and Karaman et al., Nat. Biotechnol. 26: 127 (2008).
# (§2) The KinomeScan assay is based on a competition binding assay that quantitatively measures the ability of a compound to compete with an immobilized, ATP site directed ligand. The assay is performed by combining three components: DNA-tagged kinase; immobilized ligand; and a test compound. The ability of the test compound to compete with the immobilized ligand is measured via quantitative PCR of the DNA tag. […] The CDKs tested by Millipore for inhibition with SNX14 included CDK1, CDK2, CDK3, CDK5, CDK7 and CDK9; none of these were inhibited to less than 49 percent of control (POC) activity. The CDKs tested by KinomeScan for the effect of Compound 1 included CDK2, CDK3, CDK4, CDK5, CDK7, CDK8, CDK9 and CDK19; aside from CDK8 and CDK19, the strongest inhibited CDK was CDK7 (33% POC binding). To determine the inhibition of which kinases correlates with the biological activity of SNX2-class compounds, we tested eight additional compounds of the SNX2 family, which gave different IC50 values in the cellular assays, for the ability to affect 24 kinases that were most susceptible to compound 1, through the services of KinomeScan. […] We have also determined the binding constant (Kd) for SNX14, compound 1, compound 20, compound 26, compound 43 and compound 14 in kinase assays for CDK8 and CDK19 (Table 1).
# PIP5K2C = target: T2, PIP5K2C (Homo sapiens, UniProt Q8TBX8); test: KinomeScan competition binding assay; settings: 10 μM compound
# T2 construct: purchased KinomeScan, a division of Ambit Biosciences
# T2 sequence (Q8TBX8 1-421): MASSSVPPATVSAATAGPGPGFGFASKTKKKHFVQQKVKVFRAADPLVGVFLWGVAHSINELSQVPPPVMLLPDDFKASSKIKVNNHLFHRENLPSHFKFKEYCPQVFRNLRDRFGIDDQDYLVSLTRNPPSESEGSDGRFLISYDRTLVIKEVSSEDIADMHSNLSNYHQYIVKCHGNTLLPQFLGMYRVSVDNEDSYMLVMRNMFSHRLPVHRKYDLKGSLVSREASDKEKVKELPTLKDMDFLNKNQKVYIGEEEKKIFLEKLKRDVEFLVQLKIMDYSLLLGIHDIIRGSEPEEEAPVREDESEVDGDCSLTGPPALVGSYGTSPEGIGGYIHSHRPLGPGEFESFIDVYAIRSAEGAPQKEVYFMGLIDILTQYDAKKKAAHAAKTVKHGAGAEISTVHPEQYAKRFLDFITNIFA
# Text: as §1, §2
# FLT3 (D835Y) = target: T3, FLT3 (D835Y) (Homo sapiens, UniProt P36888, D835Y); test: KinomeScan competition binding assay; settings: 10 μM compound
# T3 construct: purchased KinomeScan, a division of Ambit Biosciences
# T3 sequence (P36888 27-993 D835Y): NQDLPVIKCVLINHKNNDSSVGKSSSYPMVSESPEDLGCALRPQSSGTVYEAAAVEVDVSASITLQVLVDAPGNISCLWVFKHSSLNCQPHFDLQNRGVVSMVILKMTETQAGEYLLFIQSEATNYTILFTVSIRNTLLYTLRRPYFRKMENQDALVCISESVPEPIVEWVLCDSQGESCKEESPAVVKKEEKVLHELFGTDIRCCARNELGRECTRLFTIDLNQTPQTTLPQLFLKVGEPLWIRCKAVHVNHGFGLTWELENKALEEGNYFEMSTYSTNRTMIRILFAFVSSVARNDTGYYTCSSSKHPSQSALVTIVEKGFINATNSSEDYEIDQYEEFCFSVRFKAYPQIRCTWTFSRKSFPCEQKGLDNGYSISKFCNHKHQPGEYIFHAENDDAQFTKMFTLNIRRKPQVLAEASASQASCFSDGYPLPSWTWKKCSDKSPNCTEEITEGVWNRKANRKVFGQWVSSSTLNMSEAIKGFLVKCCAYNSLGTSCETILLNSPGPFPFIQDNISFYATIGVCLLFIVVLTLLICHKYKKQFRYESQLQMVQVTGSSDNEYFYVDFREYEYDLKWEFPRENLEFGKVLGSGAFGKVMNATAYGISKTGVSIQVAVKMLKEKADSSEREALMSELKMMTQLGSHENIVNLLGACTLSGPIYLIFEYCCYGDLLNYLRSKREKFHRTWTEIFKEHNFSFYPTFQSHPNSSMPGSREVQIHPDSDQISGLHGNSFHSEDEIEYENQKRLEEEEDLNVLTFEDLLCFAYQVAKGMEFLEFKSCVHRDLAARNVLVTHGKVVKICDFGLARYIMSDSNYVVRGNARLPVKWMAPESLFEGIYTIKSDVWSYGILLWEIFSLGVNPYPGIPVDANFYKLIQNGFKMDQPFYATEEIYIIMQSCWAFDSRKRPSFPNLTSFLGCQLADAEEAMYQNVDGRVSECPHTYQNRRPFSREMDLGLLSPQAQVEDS
# Text: as §1, §2
# PIK3CA (I800L) = target: T4, PIK3CA (I800L) (Homo sapiens, UniProt P42336, I800L); test: KinomeScan competition binding assay; settings: 10 μM compound
# T4 construct: purchased KinomeScan, a division of Ambit Biosciences
# T4 sequence (P42336 whole entry I800L): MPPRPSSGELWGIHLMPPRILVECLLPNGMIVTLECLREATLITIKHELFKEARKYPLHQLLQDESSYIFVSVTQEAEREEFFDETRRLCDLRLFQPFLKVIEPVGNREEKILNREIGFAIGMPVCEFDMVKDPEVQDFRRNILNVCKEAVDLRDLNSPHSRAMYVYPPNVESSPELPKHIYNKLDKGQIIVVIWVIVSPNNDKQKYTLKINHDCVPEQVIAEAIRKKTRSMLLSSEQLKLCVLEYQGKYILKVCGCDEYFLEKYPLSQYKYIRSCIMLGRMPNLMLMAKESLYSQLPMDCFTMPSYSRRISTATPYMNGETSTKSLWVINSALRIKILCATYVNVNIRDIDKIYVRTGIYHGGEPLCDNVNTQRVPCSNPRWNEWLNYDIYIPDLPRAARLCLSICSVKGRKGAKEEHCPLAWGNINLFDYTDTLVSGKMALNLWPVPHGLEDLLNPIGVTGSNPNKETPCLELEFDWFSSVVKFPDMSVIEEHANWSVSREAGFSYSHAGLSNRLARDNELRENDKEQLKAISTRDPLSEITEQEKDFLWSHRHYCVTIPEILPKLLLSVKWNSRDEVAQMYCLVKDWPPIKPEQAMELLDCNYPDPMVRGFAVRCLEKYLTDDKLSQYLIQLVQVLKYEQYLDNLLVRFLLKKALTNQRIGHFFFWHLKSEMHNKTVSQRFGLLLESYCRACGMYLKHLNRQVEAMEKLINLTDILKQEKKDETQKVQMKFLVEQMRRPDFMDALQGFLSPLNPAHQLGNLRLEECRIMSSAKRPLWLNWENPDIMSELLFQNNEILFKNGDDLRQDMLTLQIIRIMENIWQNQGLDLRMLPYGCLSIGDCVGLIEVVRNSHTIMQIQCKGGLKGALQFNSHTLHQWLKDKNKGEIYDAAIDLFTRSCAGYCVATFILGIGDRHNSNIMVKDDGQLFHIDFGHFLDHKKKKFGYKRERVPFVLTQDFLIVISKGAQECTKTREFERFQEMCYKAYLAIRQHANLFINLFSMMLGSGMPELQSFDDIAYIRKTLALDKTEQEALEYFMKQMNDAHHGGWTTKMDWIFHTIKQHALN
# Text: as §1, §2
# [1] = system: induction of transcription by p21 (CDKI pathway, CMV promoter-GFP) in HT1080 fibrosarcoma cells; test: Cellular assay for CDKI pathway inhibition: CMV-GFP induction by IPTG-inducible p21 in HT1080 reporter cells; format: cell-based, human
# Procedure: Briefly, the reporter cell line described in the above-referenced application, which carries IPTG (isopropyl-β-thio-galactoside)-inducible p21 gene together with a p21-inducible promoter driving the expression of Green Fluorescent Protein (GFP) was plated in 96-well plates, at 2000 cells per well for the no-IPTG arm of the assay and at 5000 cells per well for the IPTG arm of the assay. To induce the maximal levels of p21, IPTG was added to 50 μM concentration. Serial 2-fold dilutions of the tested compounds were added in quadruplicates to wells with and without IPTG, ˜10 min after IPTG addition.
# This assay is based on the induction of green fluorescent protein (GFP) expression from the cytomegalovirus (CMV) promoter in human HT1080 fibrosarcoma cells that express CDKI p21 from an isopropyl-(3-thio-galactoside (IPTG)-inducible promoter. The compound activity as a CDKI pathway inhibitor is measured by its ability to prevent the stimulation of the CMV promoter upon the addition of p21-inducing IPTG. CMV promoter activity is measured by the ratio of GFP fluorescence to the relative cell number, as determined by staining cellular DNA with Hoechst 33342. This assay was conducted in two modes. […]
# [2] = Table 1, IC50 calculated on the basis of the maximal inhibition produced by the highest doses, IPTG mode (50 μM or 2 μM) not stated, read-out: Cell-based assay (IC50)
# [3] = Table 2, calculated assuming maximal effect = zero GFP/Hoechst, no unit in table, μM from FIG. 8 legend, no activity at 40 μM given as >100, read-out: IC50 in the cellular assay
# T1 sequence (P51617 whole entry): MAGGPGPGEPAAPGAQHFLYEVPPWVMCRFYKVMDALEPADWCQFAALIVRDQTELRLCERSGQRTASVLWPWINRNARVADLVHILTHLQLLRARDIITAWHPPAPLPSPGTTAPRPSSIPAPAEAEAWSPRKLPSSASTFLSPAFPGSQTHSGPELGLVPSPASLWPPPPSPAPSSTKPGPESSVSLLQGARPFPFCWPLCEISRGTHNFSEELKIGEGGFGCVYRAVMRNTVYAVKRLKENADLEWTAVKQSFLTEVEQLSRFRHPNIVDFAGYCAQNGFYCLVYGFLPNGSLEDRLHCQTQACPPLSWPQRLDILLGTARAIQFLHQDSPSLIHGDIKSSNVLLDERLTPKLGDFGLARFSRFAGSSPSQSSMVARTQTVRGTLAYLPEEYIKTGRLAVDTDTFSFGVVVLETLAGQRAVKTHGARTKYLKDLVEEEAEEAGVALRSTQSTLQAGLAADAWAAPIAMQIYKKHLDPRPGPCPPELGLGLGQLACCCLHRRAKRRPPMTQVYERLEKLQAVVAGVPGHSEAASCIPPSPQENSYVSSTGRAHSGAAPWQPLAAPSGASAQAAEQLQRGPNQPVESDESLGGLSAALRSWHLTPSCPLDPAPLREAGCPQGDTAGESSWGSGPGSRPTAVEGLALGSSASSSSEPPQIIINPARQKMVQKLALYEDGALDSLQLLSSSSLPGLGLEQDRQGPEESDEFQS
SMILES,"POC ligand binding, IRAK1 (IRAK1)","POC ligand binding, PIP5K2C (PIP5K2C)","POC ligand binding, FLT3 (D835Y) (FLT3 (D835Y))","POC ligand binding, PIK3CA (I800L) (PIK3CA (I800L))","IC50 [1, 2]","IC50 [1, 3]","POC ligand binding, IRAK1 (IRAK1; 10 µM)","POC ligand binding, PIP5K2C (PIP5K2C; 10 µM)","POC ligand binding, FLT3 (D835Y) (FLT3 (D835Y); 10 µM)","POC ligand binding, PIK3CA (I800L) (PIK3CA (I800L); 10 µM)","IC50 ([1]; read-out: IC50, p21 induced by 8 μM IPTG, 8 μM IPTG, 72 hours)"
N#Cc1ccc2ncnc(NCc3ccc(Cl)cc3)c2c1 [compound 20],26 POC,2.4 POC,69 POC,73 POC,0.199 µM,0.6 µM,,,,,
N#Cc1ccc2ncnc(NCCc3ccc4ccccc4c3)c2c1 [compound 26],89 POC,39 POC,55 POC,81 POC,0.769 µM,1.15 µM,,,,,
CCCNc1ncnc2ccc(N3CCOCC3)cc12 [compound 46],81 POC,61 POC,19 POC,83 POC,,> 100 µM,,,,,
CC(C)CNc1ncnc2ccc(C(F)(F)F)cc12 [compound 45],25 POC,60 POC,4.7 POC,83 POC,,12.8 µM,,,,,
N#Cc1ccc2ncnc(NCc3ccc4ccccc4c3)c2c1 [compound 14],,,,,2.54 µM,1.2 µM,35 POC,16 POC,32 POC,62 POC,
N#Cc1ccc2ncnc(NCc3ccc4ccccc4c3)c2c1 [compound 43],,,,,0.22 µM,0.95 µM,7.6 POC,4 POC,76 POC,87 POC,
N#Cc1ccc2ncnc(NCCc3ccccc3)c2c1 [compound 1],8.2 POC,1.2 POC,19 POC,17 POC,0.641 µM,1.3 µM,,,,,0.57 µM
COc1ccc2ncnc(NCCc3ccccc3)c2c1 [compound 44],64 POC,59 POC,55 POC,86 POC,,11 µM,,,,,
